We go through ten compounds from PMC12444839, “Development of Carborane‐Based Halogenated Naphthyridinone‐Analogues as Cannabinoid Receptor Type 2 (CB2R) Ligands” (Chemmedchem, 2025).

One data set deals with T1, human CB2R (Homo sapiens, UniProt P34972).
T1 construct: expressed in transfected cells; host or cells: Chinese hamster ovary (CHO) cells, stably transfected; crude membrane homogenates
Description: in vitro binding affinity assay, membrane homogenates of CHO cells stably transfected with human CB2R, radioligand [3H]WIN55212-2. The settings on record: for Selectivity index (SI): SI = K iCB1R/K iCB2R; for Ki / K iCB2R mean: human CB2R, CHO membranes, [3H]WIN55212-2, mean of two values; for Ki: read-out: K iCB2R mean. From the text:
(§1) The eight target compounds 2 o , m , p , 3 o , m , p , 4, and 5 have been investigated in in vitro binding affinity assays using crude membrane preparations obtained from Chinese hamster ovary cells stably transfected with either human CB1R or CB2R and the target‐specific radioligands [ ^ 3 H]SR141716A and [ ^ 3 H]WIN55212‐2, respectively (structures shown in Figure S90, Supporting Information).
(§2) The affinity assays have been performed with membrane homogenates from Chinese hamster ovary cells (CHO) stably transfected either with human CB2R or CB1R. Already published protocols have been used.^[ [99] ^]

The target in the next data set is T2, human CB1R (Homo sapiens, UniProt P21554).
T2 construct: expressed in transfected cells; host or cells: Chinese hamster ovary (CHO) cells, stably transfected; crude membrane homogenates
The experiment in a line: in vitro binding affinity assay, membrane homogenates of CHO cells stably transfected with human CB1R, radioligand [3H]SR141716A. The conditions noted are these: CHO membranes, mean of two values (c: mean of three values), read-out: K iCB1R mean.
Source text: as §1, §2

Data set [1] is described as follows: stability in DMSO/H2O (1:1, v/v) by HPLC-UV-MS. It counts as physicochemical. The conditions noted are these: RP-HPLC. As to the method:
The stability was determined analogously to the purity determination and as described in a previous publication.^[ [79] ^] Instead of CH3CN or MeOH, a solvent mixture of DMSO/H2O (1:1, v/v) was used for all samples, as well as the blank measurements. Measurements were conducted directly after solvent addition and up to three days (Figure S82–S89, Supporting Information).
5 Determi naƟon of the Stability of Compounds 2o,m,p, 3o,m,p, 4, and 5
The stability measurements have been performed with an HPLC-UV-MS on an RP column. Blank samples of pure DMSO/H20 (1:1, v/v) have been measured prior to the target compounds. The target compounds have been dissolved in DMSO/H2O (1:1, v/v) for stability determinaƟon. The measurements have been started directly aŌer the addiƟon of the water. The double peaks or shoulders of the signals of the compound are related to the column that has been used. Broad signals have been obser ved in case of the nido-carborane derivaƟves .
Figure S82. RP-HPLC chromatograms of blank (DMSO/H2O, black and dark blue) and compound 2o, retention time: 11.4 min, purity after 2.5 d: […]

Data set [2] has as its target CB2R. Further details: method as in PMID 36944112. The settings on record: previously reported; L7 (ortho): one value; read-out: K iCB2R mean; cited from earlier work.
Data set [3] deals with CB2R. Description: CB2R binding affinity, literature value of Lucchesi et al., other testing conditions. The conditions noted are these: SI = K iCB1R/K iCB2R, from literature values. From the text: Table 1 Binding affinities of target compounds 2 o , m , p , 3 o , m , p , 4, and 5. | column: Selectivity index (SI) ^e)
Data set [4] deals with CB2R. Further details: method as in PMID 25272206. The settings on record: mean of at least three separate experiments in duplicate, other testing conditions; read-out: K iCB2R mean; cited from earlier work.
A further data set deals with CB1R. Further details: method as in PMID 25272206. The conditions noted are these: mean of at least three separate experiments in duplicate, other testing conditions; read-out: K iCB1R mean; cited from earlier work.

Where two headings read alike, the source gives them in different places. Some results are limits rather than exact numbers.

T2 sequence (P21554 whole entry): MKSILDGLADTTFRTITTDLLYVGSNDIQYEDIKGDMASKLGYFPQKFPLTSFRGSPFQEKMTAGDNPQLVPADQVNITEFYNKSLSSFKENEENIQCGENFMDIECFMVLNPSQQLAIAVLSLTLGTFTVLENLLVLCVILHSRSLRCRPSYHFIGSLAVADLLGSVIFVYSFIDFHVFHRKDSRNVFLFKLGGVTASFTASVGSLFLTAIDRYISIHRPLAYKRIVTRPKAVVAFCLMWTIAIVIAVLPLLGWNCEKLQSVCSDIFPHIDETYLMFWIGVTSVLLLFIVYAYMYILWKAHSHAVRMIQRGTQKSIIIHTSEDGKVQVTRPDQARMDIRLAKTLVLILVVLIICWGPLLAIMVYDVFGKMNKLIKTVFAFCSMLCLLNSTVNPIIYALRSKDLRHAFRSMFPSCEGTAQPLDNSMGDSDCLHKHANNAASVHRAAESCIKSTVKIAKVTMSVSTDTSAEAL
T1 sequence (P34972 whole entry): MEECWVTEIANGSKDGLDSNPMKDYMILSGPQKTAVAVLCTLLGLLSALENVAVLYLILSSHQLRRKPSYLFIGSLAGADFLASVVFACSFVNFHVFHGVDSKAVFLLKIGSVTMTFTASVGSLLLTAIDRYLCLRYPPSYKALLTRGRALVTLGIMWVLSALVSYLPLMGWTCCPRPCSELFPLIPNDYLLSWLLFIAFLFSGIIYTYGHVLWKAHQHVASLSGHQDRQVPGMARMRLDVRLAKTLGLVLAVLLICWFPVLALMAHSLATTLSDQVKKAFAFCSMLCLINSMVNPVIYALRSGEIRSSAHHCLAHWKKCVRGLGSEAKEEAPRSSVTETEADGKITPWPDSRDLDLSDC

Take “6‐Bromo‐1‐(4‐fluorobenzyl)‐2‐oxo‐N‐(1,2‐closo‐dicarba‐dodecaborane)‐1,2‐dihydro‐1,8‐naphthyridine‐3‐carboxamide [2 o]”: at human CB2R, the “Selectivity index (SI)” value is recorded as 3378 and the Ki was 29 nM. Also, on human CB1R, the Ki turned out to be 97800 nM. Besides, the “purity after 2.5 d (stability)” value in data set [1] (after 2.5 d) is reported as greater than 98%.
Regarding “Sodium 1‐(4‐Fluorobenzyl)‐6‐iodo‐2‐oxo‐N‐(7,8‐nido‐dicarba‐dodecahydroundecaborate(–1))‐1,2‐dihydro‐1,8‐naphthyridine‐3‐carboxamide [Compound 5]”, at human CB2R, the “Selectivity index (SI)” value worked out at 247, the “K iCB2R mean” value is listed as “very low affinity” and the Ki stood at 368 nM. The Ki on human CB1R was found to be 90800 nM. Besides, the “purity after 1 d (stability)” value in data set [1] is on record as greater than 97%.
For “(Z)‐N‐[3‐(4‐fluoro[^18F]butyl‐d 8)‐4,5‐dimethylthiazole‐2(3 H)‐ylidene]‐(1,7‐dicarba‐closo‐dodecaboranyl)‐carboxamide [[18F]LUZ5-d8]”, the Ki on CB2R [2] is 0.8 nM.
“6‐Bromo‐1‐(4‐fluorobenzyl)‐2‐oxo‐N‐(1,7‐closo‐dicarba‐dodecaborane)‐1,2‐dihydro‐1,8‐naphthyridine‐3‐carboxamide [2 m]”: on human CB2R, the “Selectivity index (SI)” value worked out at 273. Moreover, the Ki at human CB2R came to 6.16 nM; at human CB1R it was 1680 nM. In data set [1], the “purity after 1 d (stability)” value was ~ 98%.
Take “6‐Bromo‐1‐(4‐fluorobenzyl)‐2‐oxo‐N‐(1,12‐closo‐dicarba‐dodecaborane)‐1,2‐dihydro‐1,8‐naphthyridine‐3‐carboxamide [2 p]”: on human CB2R, the “Selectivity index (SI)” value is given as 937 and the Ki came out at 7.71 nM. Moreover, on human CB1R, the Ki was 7220 nM.
For “Sodium 6‐Bromo‐1‐(4‐fluorobenzyl)‐2‐oxo‐N‐(7,8‐nido‐dicarba‐dodecahydroundecaborate(–1))‐1,2‐dihydro‐1,8‐naphthyridine‐3‐carboxamide [Compound 4]”, on human CB2R, the “Selectivity index (SI)” value worked out at 62, the “K iCB2R mean” value is recorded as “very low affinity” and the Ki stood at 857 nM. Also, the Ki on human CB1R came to 53200 nM. The “purity after 3 d (stability)” value in data set [1] (after 3 d) was ~ 98%.
As to “1‐(4‐Fluorobenzyl)‐6‐iodo‐2‐oxo‐N‐(1,2‐closo‐dicarba‐dodecaborane)‐1,2‐dihydro‐1,8‐naphthyridine‐3‐carboxamide [3 o]”, the “Selectivity index (SI)” value at human CB2R was 260. In addition, the Ki worked out at 15.2 nM on human CB2R and 3940 nM at human CB1R. Moreover, the “purity after 6 h (stability)” value is 93% in data set [1] and ~ 93% in data set [1] (listed as 3o).
Regarding “1‐(4‐Fluorobenzyl)‐6‐iodo‐2‐oxo‐N‐(1,12‐closo‐dicarba‐dodecaborane)‐1,2‐dihydro‐1,8‐naphthyridine‐3‐carboxamide [3 p]”, on human CB2R, the “Selectivity index (SI)” value is recorded as 730 and the Ki was 7.55 nM. Besides, the Ki on human CB1R stood at 5520 nM. The “purity after 1 d (stability)” value in data set [1] is listed as greater than 98%.
Consider `C[C@H]1CC[C@@H](NC(=O)c2cc3cc(Br)cnc3n(Cc3ccc(F)cc3)c2=O)CC1` [L1 (cis)], for which the “Selectivity index (SI)” value with CB2R [3] turned out to be 1010. Besides, the Ki on CB2R [4] is 0.12 ± 0.002 nM; at CB1R it was 121 ± 5.32 nM.
Take “1‐(4‐Fluorobenzyl)‐6‐iodo‐2‐oxo‐N‐(1,7‐closo‐dicarba‐dodecaborane)‐1,2‐dihydro‐1,8‐naphthyridine‐3‐carboxamide [3 m]”: at human CB2R, the “Selectivity index (SI)” value was 877 and the Ki came out at 6.95 nM. On human CB1R, the Ki turned out to be 6090 nM. The “purity after 1 d (stability)” value in data set [1] is given as ~ 98%.
